Results published in US20230110676A1, “Method of Treating Diseases” (priority 2020, published 2023).

Legend:
[1] = tested on: MPTP Parkinson's disease mouse model; experiment: MPTP Parkinson's disease mouse model, pole test; assay type: in vivo; settings: mice, 20 mg/Kg MPTP for seven days; ergothioneine 10, 20 mg/kg co-injection or 40 mg/kg in water, 7 days
Procedure: Parkinson mouse model was induced by MPTP. Behavior test was done by testing mouse behavior: how long does it take for the mice to climb to the top of a rod. The shorter time they took, the better their health conditions are. After MPTP treatment, mice are clearly much weaker. […] Significance of difference was determined by unpaired two-tailed t-test. ###P<0.05 compared with control, ***P<0.001, ****P<0.0001 compared with MPPP-treated control. 1) Latency test results of control group with no MPTP or ergothioneine; 2) Latency test results of mice treated with 20 mg/Kg of MPTP for seven days; 3) Latency test results of mice treated with 20 mg/Kg of MPTP and 10 mg/kg of ergothioneine (co-injection) for seven days; 4) Latency test results of mice treated with 20 mg/Kg of MPTP and 20 mg/kg of ergothioneine (co-injection) for seven days; 5) Latency test results of mice treated with 20 mg/Kg of MPTP and 40 mg/kg of ergothioneine in water for seven days.

worm Eat-2 mutant = experiment: Life-extension effect on caloric-restriction worm mutant; assay type: in vivo, C. elegans; settings: Eat-2 mutant (partial starvation)
Procedure: (§1) To test the biological effect of ergothioneine, the first set of experiments was to test the toxicity level of ergothioneine on the worm model. In humans, ergothioneine is enriched up to 2 mM concentration in many parts of the body. […] At 150 μM, the lifespan of the wild type worm can be extended by 30-40% (FIG. 2A). Over the last two decades, there is numerous evidence supporting the life-extension effect by caloric restriction from various model systems (yeast, worm, fly, and mouse). Thus, the effect of ergothioneine on worm Eat-2 mutant was also examined.

worm = experiment: Protective effect on MPP+ detrimental effect, worm survival rate; assay type: in vivo; settings: 0.75 mM of MPTP plus 400 μM ergothioneine; ~50% without ergothioneine
Procedure: However, ergothioneine can offer significant protection. The last column is the worm with no ergothioneine or MPTP treatment. The first column is the worm survival rate after treating with 0.75 mM of MPTP.

N2 worms = experiment: Protective effect under paraquat-induced oxidative stress; assay type: in vivo, C. elegans; settings: N2 worms treated with paraquat
Procedure: Encouraged by the clear life-extension effect on worm model under regular culture conditions in the above example, the protective effect of ergothioneine under stresses was examined. In the first experiment, the worm was treated with paraquat to induce oxidative stress. Under the paraquat-induced oxidative stress conditions, N2 worms' life span was decreased by nearly 50% (FIG. 2C vs. FIG. 2A).

mouse = experiment: Open field experiment, physical activities of disease group at week #57; assay type: in vivo; settings: mice, week #57, treated vs control disease group
From the text: FIGS. 5A and 5B show the physical activities of untreated disease group and treated disease group at week #57 (open field experiment). A) Real time trace of mouse movement. […] B) Quantitative measurement of the distance each mouse moved during the testing period and the time they spent in the open area.

[2] = tested on: MPTP Parkinson's disease mouse model; experiment: MPTP Parkinson's disease mouse model, latency test on rotatory plate/rod; assay type: in vivo; settings: mice, 20 mg/Kg MPTP for seven days; ergothioneine 10, 20 mg/kg co-injection or 40 mg/kg in water, 7 days
Procedure: Parkinson mouse model was induced by 1-methyl-4-phenyl-1,2,3,6-tetrahydropyridine (MPTP), which induced toxicity to dopaminergic neurons (latency test). Behavior test was done by testing mouse behavior: how long can they hold on rotatory plate/rod. The longer they stay, the better their health conditions. After MPTP treatment, mice are clearly much weaker. […] Significance of difference was determined by unpaired two-tailed t-test. #P<0.05 compared with control, *P<0.05, **P<0.01, ****P<0.0001 compared with MPPP-treated control. 1) Latency test results of control group with no MPTP or ergothioneine; 2) Latency test results of mice treated with 20 mg/Kg of MPTP for seven days; 3) Latency test results of mice treated with 20 mg/Kg of MPTP and 10 mg/kg of ergothioneine (co-injection) for seven days; 4) Latency test results of mice treated with 20 mg/Kg of MPTP and 20 mg/kg of ergothioneine (co-injection) for seven days; 5) Latency test results of mice treated with 20 mg/Kg of MPTP and 40 mg/kg of ergothioneine in water for seven days.

N2 worm = experiment: Protective effect under heat shock conditions; assay type: in vivo, C. elegans; settings: N2 worm moved from 20° C. to 42° C.; a few hundred micromolar; 3 hours without
Procedure: Besides the oxidative stress, the protective effect of ergothioneine for the worm under heat shock conditions was also examined. After the worms were cultured multiple days, they were then moved from 20° C. to 42° C. Under such a heat-shock condition, 50% of the worm died within 3 hours. However, in the presence of a few hundred micromolar concentration of ergothioneine, it extends N2 worm's average survival time from 3 hours to nearly 8-9 hours (FIG. 2D).

N2 C. elegans = experiment: Life-extension effect on worm under regular culture conditions; assay type: in vivo
From the text: In this example, the biological functions of ergothioneine were investigated using C. elegans as the model system. Using C. elegans as the model has several prominent advantages, including short life cycle, simple experimental manipulation, and rich collection of publicly available genetic mutants (e.g., Caenorhabditis Genetics Center). In addition, its genome comprises ⅔ of human disease-related genes.
as §1

[3] = tested on: a-Synuclein Overexpression Worm Model; experiment: Heat shock experiment in α-synuclein overexpression worm Parkinson's disease model; assay type: in vivo; settings: 1.6 mM, 3 hours without
Procedure: FIGS. 13A and B show Protective Effect for Heat-shock for Both Wild-type and a-Synuclein Overexpression Worm Model (Parkinson's disease). Heat shock experiment. α-synuclein was expressed to create worm parkinson's disease model on worm. […] With 1.6 mM of ergothioneine, 50% survival time increased to 8 hours.

daf-16 mutant worm = experiment: Life-extension effect on daf-16 mutant worm; assay type: in vivo, C. elegans
From the text: To address this issue, the large collection of C. elegans mutants in Caenorhabditis Genetics Center was again utilized in this example. Among the mutants examined, the daf-16 mutant results stood out (FIGS. 3A, 3B, and 3C). […] Among genes of the IIS pathway, daf-2 encodes an insulin-like receptor, and it is the starting point of the pathway that eventually leads to daf-16. Daf-16 is the hub, where information from several different pathways merge and then use to regulate many physiological processes. Worm daf-16 mutant has an average life-span that is […] the N2 worm (FIGS. 3A, 3B, and 3C).

For `C[N+](C)(C)[C@@H](Cc1c[nH]c(=S)[nH]1)C(=O)[O-]` [ergothioneine], the “pole test (time to climb to the top of a rod)” value [1] was “mice are clearly protected from these detrimental effects”, the “life extension of Eat-2 worm mutant” value (worm Eat-2 mutant) was “can further extend the life” and the worm survival rate (worm) was about 90%. The “protective effect under oxidative stress” value (N2 worms) was “clearly offers protective effects”, the “physical activities in open field” value (mouse) was “demonstrated much more activities” and the “latency test (time held on rotatory plate/rod)” value [2] was “mice are clearly protected from these detrimental effects”. For the same compound, the “average survival time under heat shock” value (N2 worm) was 8 to 9 h, the life-extension effect (N2 C. elegans; N2 C. elegans, concentrations as low as 50 μM) was “robust life-extension effect” and the lifespan extension (N2 C. elegans; wild type worm, 150 μM) was 30-40%. The “50% survival time under heat shock” value [3] was 8 h and the “life-extension effect on daf-16 mutant” value (daf-16 mutant worm) was “the life-extension effect was abolished”.
